The source made the active and inactive calls. The rule behind the calls is not given here.
What was measured:
[1] = molecular target: T1, Signal transducer and activator of transcription 5A (Homo sapiens, UniProt P42229); experiment: Binding affinity to STAT5A (unknown origin) assessed as inhibition constant incubated for 1 hr by fluorescence polarization assay
T1 sequence (P42229 whole entry): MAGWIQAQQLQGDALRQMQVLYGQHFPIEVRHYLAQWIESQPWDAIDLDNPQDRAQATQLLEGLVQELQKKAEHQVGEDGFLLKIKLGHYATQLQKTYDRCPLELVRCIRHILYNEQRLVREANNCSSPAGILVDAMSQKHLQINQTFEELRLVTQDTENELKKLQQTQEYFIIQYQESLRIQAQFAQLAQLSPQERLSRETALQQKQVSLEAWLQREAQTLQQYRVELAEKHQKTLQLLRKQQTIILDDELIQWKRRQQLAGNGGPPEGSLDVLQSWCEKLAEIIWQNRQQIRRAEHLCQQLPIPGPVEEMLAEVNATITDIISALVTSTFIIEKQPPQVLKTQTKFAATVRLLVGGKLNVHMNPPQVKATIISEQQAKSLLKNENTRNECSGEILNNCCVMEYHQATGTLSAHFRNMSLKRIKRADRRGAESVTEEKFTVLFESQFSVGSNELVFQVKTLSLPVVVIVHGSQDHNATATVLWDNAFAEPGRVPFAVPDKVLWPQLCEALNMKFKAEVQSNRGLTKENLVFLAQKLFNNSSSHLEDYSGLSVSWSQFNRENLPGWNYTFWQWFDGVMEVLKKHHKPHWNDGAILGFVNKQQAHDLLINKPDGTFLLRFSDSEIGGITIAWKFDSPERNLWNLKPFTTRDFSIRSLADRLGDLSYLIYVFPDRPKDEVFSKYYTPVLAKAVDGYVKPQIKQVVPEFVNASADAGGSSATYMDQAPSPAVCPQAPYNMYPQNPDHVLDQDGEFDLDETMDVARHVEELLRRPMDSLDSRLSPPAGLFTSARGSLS

[2] = molecular target: T2, Signal transducer and activator of transcription 5B (Homo sapiens, UniProt P51692); experiment: Binding affinity to STAT5B (unknown origin) assessed as inhibition constant incubated for 1 hr by fluorescence polarization assay
T2 sequence (P51692 whole entry): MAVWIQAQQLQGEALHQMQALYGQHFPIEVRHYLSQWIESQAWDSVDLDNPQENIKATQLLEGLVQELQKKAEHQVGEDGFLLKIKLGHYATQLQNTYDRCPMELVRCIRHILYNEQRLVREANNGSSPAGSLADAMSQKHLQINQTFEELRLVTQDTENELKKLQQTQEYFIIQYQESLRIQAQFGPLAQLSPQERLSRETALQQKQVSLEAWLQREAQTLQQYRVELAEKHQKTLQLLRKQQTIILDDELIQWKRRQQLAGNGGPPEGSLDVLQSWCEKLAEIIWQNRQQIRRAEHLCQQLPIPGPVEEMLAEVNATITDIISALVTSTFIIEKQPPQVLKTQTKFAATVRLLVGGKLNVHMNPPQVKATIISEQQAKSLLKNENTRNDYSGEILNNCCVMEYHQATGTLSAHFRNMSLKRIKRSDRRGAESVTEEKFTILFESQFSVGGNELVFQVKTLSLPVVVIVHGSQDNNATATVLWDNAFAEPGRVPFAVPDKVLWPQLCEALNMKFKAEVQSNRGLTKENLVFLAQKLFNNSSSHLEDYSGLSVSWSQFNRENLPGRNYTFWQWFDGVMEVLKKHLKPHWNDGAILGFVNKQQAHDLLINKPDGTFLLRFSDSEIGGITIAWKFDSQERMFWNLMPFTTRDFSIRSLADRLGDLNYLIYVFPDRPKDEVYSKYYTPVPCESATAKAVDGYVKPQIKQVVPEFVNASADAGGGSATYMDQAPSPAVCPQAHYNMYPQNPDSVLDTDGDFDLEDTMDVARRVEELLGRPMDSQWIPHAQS

[3] = molecular target: T3, Signal transducer and activator of transcription 6 (Homo sapiens, UniProt P42226); experiment: Binding affinity to N-terminal his6-tgged STAT6 (unknown origin) (113 to 658 residues) assessed as inhibition constant incubated for 1 hr by fluorescence polarization assay
T3 sequence (P42226 whole entry): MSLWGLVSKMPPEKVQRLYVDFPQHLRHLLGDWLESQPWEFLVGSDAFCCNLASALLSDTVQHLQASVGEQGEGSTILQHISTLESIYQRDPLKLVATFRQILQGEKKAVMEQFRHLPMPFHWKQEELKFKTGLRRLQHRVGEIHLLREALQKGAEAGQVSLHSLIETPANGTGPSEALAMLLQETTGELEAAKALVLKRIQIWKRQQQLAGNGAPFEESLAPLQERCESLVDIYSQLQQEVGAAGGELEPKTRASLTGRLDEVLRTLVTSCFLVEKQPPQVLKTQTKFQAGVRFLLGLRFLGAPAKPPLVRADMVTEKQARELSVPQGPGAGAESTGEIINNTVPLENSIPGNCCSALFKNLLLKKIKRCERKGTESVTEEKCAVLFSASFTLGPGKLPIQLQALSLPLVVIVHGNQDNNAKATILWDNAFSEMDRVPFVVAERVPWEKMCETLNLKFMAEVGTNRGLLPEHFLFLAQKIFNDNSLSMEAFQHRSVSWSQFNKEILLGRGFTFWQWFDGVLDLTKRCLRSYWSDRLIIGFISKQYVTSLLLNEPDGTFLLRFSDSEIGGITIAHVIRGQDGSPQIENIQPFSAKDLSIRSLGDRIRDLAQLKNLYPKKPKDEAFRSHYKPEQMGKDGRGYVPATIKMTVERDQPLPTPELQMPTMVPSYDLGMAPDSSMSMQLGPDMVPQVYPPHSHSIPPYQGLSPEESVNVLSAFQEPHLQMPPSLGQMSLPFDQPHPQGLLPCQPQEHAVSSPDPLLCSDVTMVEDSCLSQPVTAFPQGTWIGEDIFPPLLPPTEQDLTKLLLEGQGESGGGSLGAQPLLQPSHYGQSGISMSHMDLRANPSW

[4] = molecular target: T4, Protein cereblon/Signal transducer and activator of transcription 6 (Homo sapiens, UniProt P42226+Q96SW2); experiment: PROTAC activity at STAT6/CRBN in human MV4-11 cells assessed as reduction in STAT6 level at 0.5 uM measured upto 1200 mins by HiBiT bioluminescence assay; format: cell-based
[5] = molecular target: Protein cereblon/Signal transducer and activator of transcription 3 (Homo sapiens) (UniProt P40763+Q96SW2); experiment: PROTAC activity at STAT3/CRBN in human PBMC cells assessed as reduction in STAT3 level at 10 uM incubated for 18 hrs by Western blot analysis relative to control; format: cell-based
[6] = molecular target: Protein cereblon/Signal transducer and activator of transcription 5A/Signal transducer and activator of transcription 5B (Homo sapiens) (UniProt P42229+P51692+Q96SW2); experiment: PROTAC activity at STAT5/CRBN in human PBMC cells assessed as reduction in STAT5 level at 10 uM incubated for 18 hrs by Western blot analysis relative to control; format: cell-based
[7] = molecular target: T4, Protein cereblon/Signal transducer and activator of transcription 6; experiment: PROTAC activity at STAT6/CRBN in human L-1236 cells assessed as reduction in STAT6 level at 10 uM incubated for 24 hrs by Western blot analysis; format: cell-based
[8] = molecular target: Protein cereblon/Signal transducer and activator of transcription 2 (Homo sapiens) (UniProt Q96SW2+P52630); experiment: PROTAC activity at STAT2/CRBN in human PBMC cells assessed as reduction in STAT2 level at 10 uM incubated for 18 hrs by Western blot analysis relative to control; format: cell-based
[9] = molecular target: Protein cereblon/Signal transducer and activator of transcription 1-alpha/beta (Homo sapiens) (UniProt P42224+Q96SW2); experiment: PROTAC activity at STAT1/CRBN in human PBMC cells assessed as reduction in STAT1 level at 10 uM incubated for 18 hrs by Western blot analysis relative to control; format: cell-based
[10] = molecular target: Protein cereblon/Signal transducer and activator of transcription 4 (Homo sapiens) (UniProt Q96SW2+Q14765); experiment: PROTAC activity at STAT4/CRBN in human PBMC cells assessed as reduction in STAT4 level at 10 uM incubated for 18 hrs by Western blot analysis relative to control; format: cell-based
[11] = molecular target: T4, Protein cereblon/Signal transducer and activator of transcription 6; experiment: PROTAC activity at STAT6 at Y641 residue/CRBN in human L-1236 cells assessed as reduction in STAT6 level at 10 uM incubated for 24 hrs by Western blot analysis; format: cell-based
[12] = molecular target: T4, Protein cereblon/Signal transducer and activator of transcription 6; experiment: PROTAC activity at STAT6/CRBN in human MV4-11 cells assessed as reduction in STAT6 level at upto 10 uM incubated for 12 hrs by Western blot analysis; format: cell-based

## CC(C)(C)[C@H](NC(=O)c1cc2cc(C(F)(F)P(=O)(O)O)ccc2s1)C(=O)N1CCC[C@H]1C(=O)N1CCOC(c2ccc(F)cc2)C1 (stereo partly specified)
[1]
  Ki: > 5 µM
[2]
  Ki: 4400 nM
[3]
  Ki: 220 nM

## CC(C)(C)[C@H](NC(=O)c1cc2cc(C(F)(F)P(=O)(O)O)ccc2s1)C(=O)N1CCC[C@H]1C(=O)N1CCOC(c2ccc3ccccc3c2)C1 (stereo partly specified)
[1]
  Ki: 1.4 µM
[2]
  Ki: 800 nM
[3]
  Ki: 83 nM

## CC(C)(C)[C@H](NC(=O)c1cc2cc(C(F)(F)P(=O)(O)O)ccc2s1)C(=O)N1CCC[C@H]1C(=O)N1CCOC(C2CCCCC2)C1 (stereo partly specified)
[1]
  Ki: 1.8 µM
[2]
  Ki: 200 nM
[3]
  Ki: 500 nM

## CC(C)(C)[C@H](NC(=O)c1cc2cc(C(F)(F)P(=O)(O)O)ccc2s1)C(=O)N1CCC[C@H]1C(=O)N1CCOC(c2ccccc2F)C1 (stereo partly specified)
[1]
  Ki: > 5 µM
[2]
  Ki: 2400 nM
[3]
  Ki: 110 nM

## NS(=O)(=O)OC[C@@H]1C[C@@H](n2ccc3c(N[C@H]4CCc5ccccc54)ncnc32)C[C@@H]1O
[4]
  Activity: No effect

## CN1C(=O)CCC(N2Cc3c(C#CCCCCCO[C@H]4C[C@@H](C(=O)N5CCO[C@H](c6ccccc6)C5)N(C(=O)[C@@H](NC(=O)c5cc6cc(C(F)(F)P(=O)(O)O)ccc6s5)C(C)(C)C)C4)cccc3C2=O)C1=O (stereo partly specified)
[5]
  Activity: No effect
[6]
  Activity: No effect
[7]
  Activity: No effect
[8]
  Activity: No effect
[9]
  Activity: No effect
[10]
  Activity: No effect
[11]
  Activity: No effect
[12]
  Activity: inactive

## CC(C)(C)[C@H](NC(=O)c1cc2cc(C(F)(F)P(=O)(O)O)ccc2s1)C(=O)N1CCC[C@H]1C(=O)N1CCOC(Cc2ccccc2)C1 (stereo partly specified)
[1]
  Ki: > 5 µM
[2]
  Ki: > 5000 nM
[3]
  Ki: 1300 nM

## CC(C)(C)[C@H](NC(=O)c1cc2cc(C(F)(F)P(=O)(O)O)ccc2s1)C(=O)N1CCC[C@H]1C(=O)N1CCSC(c2ccccc2)C1 (stereo partly specified)
[1]
  Ki: 1.4 µM
[2]
  Ki: 1800 nM
[3]
  Ki: 80 nM

## CC(C)(C)[C@H](NC(=O)c1cc2cc(C(F)(F)P(=O)(O)O)ccc2s1)C(=O)N1CCC[C@H]1C(=O)N1CCOC(c2cccnc2)C1 (stereo partly specified)
[1]
  Ki: > 5 µM
[2]
  Ki: > 5000 nM
[3]
  Ki: 310 nM

## CC(C)(C)[C@H](NC(=O)c1cc2cc(C(F)(F)P(=O)(O)O)ccc2s1)C(=O)N1CCC[C@H]1C(=O)N1CCOC(c2ccncc2)C1 (stereo partly specified)
[1]
  Ki: > 5 µM
[2]
  Ki: > 5000 nM
[3]
  Ki: 1100 nM

## CC(C)(C)[C@H](NC(=O)c1cc2cc(C(F)(F)P(=O)(O)O)ccc2s1)C(=O)N1CCC[C@H]1C(=O)N1CCOC(c2ccc(F)cc2F)C1 (stereo partly specified)
[1]
  Ki: > 5 µM
[2]
  Ki: > 5000 nM
[3]
  Ki: 420 nM

Reference: ChEMBL document CHEMBL6103537 (J Med Chem, 2025)
